Tests used:
[1] = test system: 35S::GFP-PYR1 expressing transgenic plants; assay: thermal imaging of leaf temperature; format: in vivo, Arabidopsis; settings: 35S::GFP-PYR1, 2 μM, 24 hours
Protocol: (§1) To investigate if the system is sufficient to control ABA responses in vegetative tissues, we generated homozygous transgenic lines for two 35S-driven lines (E15 and E16) and 2 RBCS-driven lines (F29 and F34). These materials were grown along side wild type plants and a previously constructed 35S::GFP-PYR1 over expression line (Park et al., 2009). These plants were grown until three weeks old and then treated with a solution containing either 2 μM mandipropamid and 0.02% Silwet or a mock treatment containing 0.02% Silwet and the mandipropamid carrier solvent (DMSO). 24 hours after treatment, the leaf temperatures were examined using a thermal imaging camera. It is well known that ABA-induced guard cell closure reduces transpiration, which leads to increases in leaf temperatures. […] Since guard cell aperture is the primary determinant of transpiration rates, thermal imaging is a useful way to indirectly infer relative transpiration rates and guard cell aperture at the whole plant level. As is shown in FIG. 3, mandipropamid treatment of homozygous PYR1^MANDI expressing transgenic plants leads to large changes in leaf temperature (˜2° C. increase) within 24 hours of treatment.

[2] = test system: wild type plants; assay: thermal imaging of leaf temperature; format: in vivo, Arabidopsis; settings: 2 μM, 24 hours
Protocol: as §1

[3] = molecular target: T1, GST-ABI1 with 6×-His-PYR1^MANDI (Arabidopsis thaliana, UniProt O49686, F108A/F159L/K59R/S122G/V81I/Y58H); assay: PP2C enzyme inhibition assay (4-methylumbelliferyl-phosphate); format: biochemical; settings: 100 nM 6×-His-PYR1^MANDI, 50 nM GST-PP2C; read-out: IC50, mandipropamid mediated inhibition of ABI1
T1 construct: made in house; host or cells: E. coli BL21[DE3]pLysS (receptor)
Protocol: (§2) We next characterized the effects of recombinant PYR1^MANDI on PP2C activity using the fluorogenic substrate 4-methylumbelliferyl-phosphate. Recombinant receptor and PP2C proteins were prepared as described above and used to examine PP2C inactivation in response to mandipropamid or ABA. Enzyme inhibition assays were conducted using the following assay conditions: 100 nM 6×-His-PYR1^MANDI, 50 nM GST-PP2C, 100 mM Tris-OAc (pH 7.9), 100 mM NaCl, 1 mM MnCl2, 1% β-mercaptoethanol. […] The three ABA-regulated clade A PP2Cs, GST-HAB1, GST-ABI1 and GST-ABI2 were each tested under the same enzyme conditions in separate reactions. The assays were conducted at a variety of mandipropamid or ABA concentrations so that IC50 values could be determined. […] Thus, the PYR1^MANDI receptor is highly sensitive to activation by mandipropamid and interacts with multiple clade A PP2Cs in response to mandipropamid. This high level of sensitivity is consistent with the yeast two hybrid results described above in which a detectable interaction between PYR1^MANDI and HAB1 could be observed at concentrations as low as 2 nM (see Table 1). We note that the yeast two hybrid reporter systems requires only a small percentage of PYR1^MANDI receptors to bind HAB1 for an interaction signal and is therefore a potentially more sensitive indicator than in vitro assays. […] Thus these in vitro assays confirm that PYR1^MANDI is selectively activated by mandipropamid.

[4] = molecular target: T2, GST-HAB1 with 6×-His-PYR1^MANDI (Arabidopsis thaliana, UniProt O49686, F108A/F159L/K59R/S122G/V81I/Y58H); assay: as above; format: biochemical; settings: 100 nM 6×-His-PYR1^MANDI, 50 nM GST-PP2C; read-out: IC50, mandipropamid mediated inhibition of HAB1
T2 construct: made in house; host or cells: E. coli BL21[DE3]pLysS (receptor)
Protocol: as §2

[5] = molecular target: T3, PYR1 K59R F108A S122G (Arabidopsis thaliana, UniProt O49686, F108A/K59R/S122G); assay: Y2H Combinatorial Mutagenesis Screen I (HAB1, X-gal); format: cell-based
T3 construct: expressed in transfected cells; host or cells: S. cerevisiae Y190 two-hybrid reporter strain
Description: This screening approach yielded mutants at ligand contacting residues that alter sensitivity to specific ligands. We reasoned that receptor sensitivity could be improved by systematically constructing combinations of the best mutant variants identified in the first round of screening. To test this, we constructed mutant combinations using the strongest mutations identified for mandipropamid, benzothiadiazole, benoxacor or fludioxonil sensitivity. The mutations selected for combinatorial mutagenesis are listed in bold type in Table 1; The mutant combinations were constructed using the QuickChange Lightning Multi Site-Directed PCR Mutagenesis kit (Agilent, USA) using pBD-PYR1^K59R template DNA and mutagenic primers, essentially as previously described (Mosquna et al., 2011). The mutant combinations were sequence validated, introduced into the pACT-HAB1 Y190 reporter strain and then tested for responsiveness to a range of compound concentrations (100, 50, 25, 10, 1, 0.2, 0.1 or 0 μM each test compound). These efforts yielded double mutant receptor variants with improved sensitivity for the 4 compound/receptor pairs examined (see entries labeled “Combinatorial Mutagenesis Screen I” in Table 1).
The preceding efforts identified PYR1^K59R,F108A,S122G, which is responsive to mandipropamid concentrations as low as 1 μM. […]

T2 sequence (Q9CAJ0 23-511): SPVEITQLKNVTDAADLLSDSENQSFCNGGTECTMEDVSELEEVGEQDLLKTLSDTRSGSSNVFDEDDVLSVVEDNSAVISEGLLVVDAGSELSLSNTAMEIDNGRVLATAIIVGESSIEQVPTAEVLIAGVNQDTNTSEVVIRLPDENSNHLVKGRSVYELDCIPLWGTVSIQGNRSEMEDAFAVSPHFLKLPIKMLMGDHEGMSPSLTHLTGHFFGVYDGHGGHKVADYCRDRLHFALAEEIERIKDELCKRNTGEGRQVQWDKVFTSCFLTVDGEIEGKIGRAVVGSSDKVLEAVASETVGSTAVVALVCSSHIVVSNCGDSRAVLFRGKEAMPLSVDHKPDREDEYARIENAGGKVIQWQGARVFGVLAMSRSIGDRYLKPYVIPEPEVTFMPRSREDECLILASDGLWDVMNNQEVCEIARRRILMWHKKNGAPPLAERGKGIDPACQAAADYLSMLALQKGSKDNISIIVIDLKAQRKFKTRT
T2 sequence (O49686 whole entry Y58H/K59R/V81I/F108A/S122G/F159L): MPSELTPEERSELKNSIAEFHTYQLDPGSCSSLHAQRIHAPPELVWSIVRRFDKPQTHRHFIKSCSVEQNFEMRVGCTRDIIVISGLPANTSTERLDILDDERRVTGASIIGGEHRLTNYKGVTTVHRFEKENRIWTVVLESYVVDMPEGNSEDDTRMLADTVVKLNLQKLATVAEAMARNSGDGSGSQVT
T3 sequence (Q9CAJ0 23-511): as the sequence (Q9CAJ0 23-511) above
T3 sequence (O49686 whole entry K59R/F108A/S122G): as the sequence (O49686 whole entry Y58H/K59R/V81I/F108A/S122G/F159L) above, with H58Y, I81V, L159F counted along it
T1 sequence (O49686 whole entry Y58H/K59R/V81I/F108A/S122G/F159L): as the sequence (O49686 whole entry Y58H/K59R/V81I/F108A/S122G/F159L) above
T1 sequence (P49597 whole entry partner): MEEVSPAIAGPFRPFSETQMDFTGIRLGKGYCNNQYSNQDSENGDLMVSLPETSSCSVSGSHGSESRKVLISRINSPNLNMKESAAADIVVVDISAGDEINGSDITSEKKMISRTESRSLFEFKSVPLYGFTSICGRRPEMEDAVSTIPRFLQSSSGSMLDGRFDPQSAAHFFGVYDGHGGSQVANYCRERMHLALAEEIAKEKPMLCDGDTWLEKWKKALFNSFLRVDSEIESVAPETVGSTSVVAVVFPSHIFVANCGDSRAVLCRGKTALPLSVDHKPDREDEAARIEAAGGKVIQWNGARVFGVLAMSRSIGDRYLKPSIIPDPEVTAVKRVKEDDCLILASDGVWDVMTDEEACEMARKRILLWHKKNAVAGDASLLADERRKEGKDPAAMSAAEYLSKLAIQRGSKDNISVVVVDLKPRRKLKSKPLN

In the case of `C#CCOc1ccc(CCNC(=O)C(OCC#C)c2ccc(Cl)cc2)cc1OC` (centres unmarked) [Mandipropamid, mandipropamid], the “leaf temperature effect of mandipropamid” value [1] is reported as “not observed”, the “leaf temperature effect of mandipropamid” value [2] is reported as “not observed” and the IC50 [3] is reported as 26.8 nM. The IC50 [4] was 32.2 nM and the Threshold [5] was 1 µM.
